Measurements: patent US20180020669A1, “Methods for the Inhibition and Dispersal of Biofilms” (priority 2015, published 2018)

Assays:
[1] = tested on: S. aureus NCTC 8325; format: cell-based, Staphylococcus aureus
Method: The effect of auranofin on the growth of S. aureus was also assessed using a time kill assay. Exponentially growing S. aureus NCTC 8325 were diluted to approximately 5×10^6 cfu/mL in tryptic soy broth (TSB) and auranofin, rifampicin or both auranofin and rifampicin were added. Auranofin was added to cultures at a concentration of 5 μg/mL; 1 μg/mL or 0.5 μg/mL. Rifampicin was added to cultures at a concentration of 1 μg/mL or 0.2 pig/mL, while cultures with auranofin and rifampicin had 0.5 μg/mL auranofin and 0.2 μg/mL rifampicin. Cultures were sampled at various time points and colony forming units determined.

[2] = tested on: preformed S. aureus NCTC 8325 biofilms; assay: Preformed biofilm assay (crystal violet); format: cell-based, Staphylococcus aureus
Method: The effect of auranofin, alone and in combination with antibiotics, on preformed S. aureus biofilms was assessed. Briefly S. aureus NCTC 8325 was plated in 96-well plates as described in Example 2 and incubated 37° C. for 24 hours. Biofilms were then washed 3 times with TSB and 150 μL of fresh TSB and 3 μL of auranofin at the appropriate dilution in DMSO was added to the wells in duplicate. Plates were again sealed with AeraSeal™ and reincubated 37° C. for 24 hours. Biofilm was then detected as described in above.

[3] = tested on: A. baumannii (D2, A94 and ATCC 17978); assay: Growth assay in LB, absorbance 595 nm; format: cell-based, Acinetobacter baumannii
Method: In the first growth assay, three strains of A. baumannii (D2, A94 and ATCC 17978) were cultured in LB in the presence of 1.25, 2.5, 5, 10, 20 or 40 μg/mL auranofin or 1.56, 3.13, 6.25, 12.5, 25, 50, 100 or 200 μg/mL gentamicin for 22-24 hours. Bacterial strains were also grown in the absence of antibiotic, and these were used as controls. The bacterial growth was determined by the measurement of absorbance at 595 nm using a Synergy HT Bio-Tek plate reader. The growth of A. baumannii was then assessed as a percentage of the positive control (bacteria alone grown in the presence of 2% DMSO).
A second growth assay was then performed to determine the effect of a combination of auranofin and gentamicin on bacterial growth. Briefly, A. baumannii was cultured in LB medium for 22-24 hours in the presence of […], 2.5, 5, 10, 20 or 40 μg/ml auranofin and 0, 30, 100, 300 or 1000 μg/ml gentamicin before growth was determined by the measurement of absorbance at 595 nm using a Synergy HT Bio-Tek plate reader. The growth of A. baumannii was then assessed as a percentage of the positive control (bacteria alone grown in the presence of 2% DMSO).

[4] = tested on: A. baumannii D2 biofilm formation; assay: Biofilm prevention assay (crystal violet); format: cell-based, Acinetobacter baumannii; conditions: A. baumannii D2, 24 hours
Method: The effect of auranofin on the formation of A. baumannii D2 biofilm formation was assessed using the biofilm prevention assay described above in Example 2 with slight modifications. Briefly, A. baumannii D2 were grown overnight in LB media and diluted 1/100 before 150 μL was added to the wells of a flat bottomed 96-well plate. Three microliters of auranofin or gentamicin at the appropriate dilution in DMSO was added to the wells in duplicate. Controls included a positive control with bacteria alone with media and 2% DMSO and a negative (no bacteria) control with media containing 2% DMSO. Plates were sealed with AeraSeal™ and incubated at 37° C. for 24 hours. The plates were then washed three times with PBS, dried at 60° C. for 1 hour and stained with crystal violet for 1 hour. The plates were again washed three times with water, dried and scanned prior to the addition of 33% acetic acid to re-solubilize the crystal violet stain bound to the adherent cells. Absorbance was then measured at 595 nm and expressed as a percentage of the bacteria only control.

[5] = tested on: S. aureus (strain SH1000-GFP) in THP-1 cells; assay: S. aureus infection of THP-1 cells (fluorescence microscopy); format: cell-based, Staphylococcus aureus; conditions: 1 μg/ml in 0.5% DMSO, moi 3, over 24 h
Method: THP-1, a human monocytic cell line was infected with S. aureus (strain SH1000-GFP) at a multiplicity of infection of 3 for 1.5. hours. Cells were washed 3 times and auranofin (1 μg/ml in 0.5% DMSO) or 0.5% DMSO was added. Cells were observed under a fluorescent microscope at various time points post infection (FIG. 3).

[6] = tested on: S. aureus NCTC 8325 and clinical isolates; assay: Disc assay for resistance development; format: cell-based, Staphylococcus aureus; conditions: 4 μg disc, TSB agar, overnight
Method: Bacteria were plated on TSB agar. 3M discs (impregnated with 4 μg auranofin, 4 μg rifampicin or DMSO alone) were placed on top of the agar. The plates were incubated overnight at 37° C. and any zone of bacterial inhibition was measured. Any bacterial colonies growing within this zone of inhibition were picked and subsequently analysed for potential resistance against the appropriate compound/antibiotic using a growth or biofilm formation assay as described above. […] These S. aureus Rif mutants were tested in a growth assay and their rifampicin resistance confirmed.

[7] = tested on: S. aureus; assay: Resistance frequency assay; format: cell-based, Staphylococcus aureus; conditions: CaMHB broth with serial dilutions of the compound
Method: Briefly, S. aureus was streaked out on TSB agar plates containing 1×, 1.5×, 2× and 4× the minimum inhibitory concentration of auranofin (1 μg/mL). Any potential mutants were picked and assessed for resistance. The potentially resistant bacteria were cultured overnight in CaMHB broth containing serial dilutions of auranofin, rifampicin or lincomycin and assessed for their resistance profile by measuring the growth of the bacteria in a growth assay and comparing it to the control. “Wild-type” bacteria that had not originally been grown in the agar plates and which were not resistant were also included in the growth assay. “Rif resistant cells” were picked from the rifampicin zone of inhibition and potential “Au resistant” mutants were picked from the edge of the auranofin zone of inhibition and tested.

[8] = tested on: rifampicin-resistant S. aureus mutants; format: cell-based, Staphylococcus aureus; conditions: discs with 4 μg (4 μg each), TSB agar, overnight, data not shown
[9] = tested on: multi-drug resistant clinical isolates of K. pneumoniae; format: cell-based, Klebsiella pneumoniae; conditions: 100 μg disc; C204742, C68761, C188681, C71173
Method: The ability of auranofin to inhibit the growth of four multi-drug resistant clinical isolates of K. pneumoniae was assessed. The clinical isolates were C204742 (resistant to ampicillin and gentamicin), C68761 (resistant to ampicillin, trimethoprim and sulfamethoxazole), C188681 (resistant to ampicillin, trimethoprim, sulfamethoxazole, ceftazidime, tobramycin and ciprofloxacin) and C71173 (resistant to ampicillin, trimethoprim, sulfamethoxazole, ceftazidime, tobramycin, gentamicin and ciprofloxacin). These strains have been previously described in Chowdhury et al., (2011) Antimicrob Agents Chemother 55: 3140-3149.
Bacterial colonies were picked and diluted 1/1000 in Luria broth (LB). 100 μL of each dilution was then streaked out on LB plates. Discs impregnated with 100 μg auranofin or 100 μg gentimicin or auranofin and gentamicin (100 μg each) were placed on top of the agar. The plates were incubated overnight at 37° C. and any zone of bacterial inhibition was noted.

[10] = tested on: E. coli K12 single-knockout mutants; assay: Growth assay of Keio library redox mutants; format: cell-based
Method: To determine whether auranofin acts on the antioxidant pathway mutants from the Keio library, containing single-knockout mutants for all non-essential genes of E. coli K12 were tested in a growth assay.
Auranofin stock solution (20 mg/ml) in dimethyl sulfoxide (DMSO) was serially diluted in DMSO and each dilution added in duplicate to a 96-well plate to a final DMSO concentration of 2% (v/v). An overnight culture of E. coli mutants and wild type were diluted 1:100 in Luria Bertani (LB) broth and 150 μl of this sample was added to each well of the 96-well plates. Control wells included an ‘untreated’ control with bacteria in the presence of 2% DMSO and a negative sample (containing […] growth media in the presence of 2% DMSO). Plates were incubated at […] for 22-24 h and bacterial growth assessed by absorbance at a wavelength of 595 nm. The minimum inhibitory concentration (MIC) was defined as the lowest concentration of compound that inhibited growth compared to the no-treatment control.

[11] = tested on: biofilm formation; assay: Inhibition of biofilm formation (general description); format: cell-based; conditions: organism not stated
[12] = tested on: existing biofilms; assay: Action against existing biofilms (general description); format: cell-based; conditions: for concentration for action against existing biofilms (not observed even at): organism not stated

Compound: CO[C@H]1/C=C/O[C@@]2(C)Oc3c(C)c(O)c4c(O)c(c(/C=N/N5CCN(C)CC5)c(O)c4c3C2=O)NC(=O)/C(C)=C\C=C\[C@H](C)[C@H](O)[C@@H](C)[C@@H](O)[C@@H](C)[C@H](OC(C)=O)[C@@H]1C [rifampicin]
- time after which bacterial growth starts to increase (development of resistance) ([1]; 0.2 μg/mL and 1 μg/mL rifampicin): about 10 hours

Compound: gentamicin
- effect on biofilm mass, antibiotic alone ([2]; 0.9 or 3 μg/mL rifampicin, 25 or 75 μg/mL gentamicin): no effect on biofilm mass
- susceptibility in growth assay ([3]; A. baumannii A94): partially resistant
- susceptibility in growth assay ([3]; A. baumannii ATCC 17978): susceptible
- susceptibility in growth assay ([3]; A. baumannii D2): completely resistant
- concentration that completely prevented biofilm formation [4]: > 20 µg/mL

Compound: CC[P](CC)(CC)=[Au][S][C@@H]1O[C@H](COC(C)=O)[C@@H](OC(C)=O)[C@H](OC(C)=O)[C@H]1OC(C)=O [auranofin, 2,3,4,6-tetra-o-acetyl-1-thio-J-D-glucopyranosato-S-(triethylphosphine) gold]
- development of resistant bacteria over time ([1]; 0.5, 1 or 5 μg/mL auranofin, or 0.5 μg/mL auranofin with 0.2 μg/mL rifampicin): no resistant bacteria were observed
- growth inhibitory effect in time kill assay ([1]; auranofin 0.5, 1 or 5 μg/mL, TSB): concentration- and time-dependent
- intracellular and extracellular S. aureus growth in infected THP-1 cells [5]: inhibited intracellular and extracellular S. aureus growth
- effect on the biofilm, compound alone ([2]; 5 μg/mL auranofin alone or 1.5 μg/mL rifampicin alone): only a partial effect
- effect on existing S. aureus biofilm ([2]; 20 μg/mL and 40 μg/mL auranofin): essentially eliminating the biofilm
- effect on existing S. aureus biofilms (crystal violet staining) ([2]; 24 hours treatment, FIG. 5): dose-dependent inhibitory effect
- bacterial colonies growing within the zone of inhibition (resistance) [6]: No growth was observed
- zone of inhibition ([6]; NCTC 8325 and clinical isolates incl. MRSA): produced zones of inhibition
- resistance of potential mutants picked from agar plates, growth assay [7]: none of the potentially auranofin-resistant bacteria picked from agar plates were actually resistant
- zone of inhibition on rifampicin-resistant mutants [8]: Zones of inhibition formed
- growth inhibition, disc assay [9]: shows inhibitory activity against all four multi-drug resistant clinical isolates tested
- effect of depletion on sensitivity to auranofin ([10]; depletion of gor): little effect
- sensitivity to auranofin compared to the wild-type strain ([10]; mutant lacking gsha): more sensitive
- sensitivity to auranofin compared to the wild-type strain ([10]; mutant lacking gshb): more sensitive

Compound: CC(=O)NC[C@H]1CN(c2ccc(N3CCOCC3)c(F)c2)C(=O)O1 [linezolid]
- concentration at which inhibition of biofilm formation is observed [11]: ~6 µg/mL
- shift between inhibition of biofilm formation and action against existing biofilms ([12]; at least): ≥ 15 fold
- concentration for action against existing biofilms (not observed even at) [12]: > 100 µg/mL

Compound: CC[C@H]1OC(=O)[C@H](C)[C@@H](O[C@H]2C[C@@](C)(OC)[C@@H](O)[C@H](C)O2)[C@H](C)[C@@H](O[C@@H]2O[C@H](C)C[C@H](N(C)C)[C@H]2O)[C@](C)(O)C[C@@H](C)C(=O)[C@H](C)[C@@H](O)[C@]1(C)O [erythromycin]
- concentration at which inhibition of biofilm formation is observed [11]: 0.1 to 0.3 µg/mL
- concentration for action against existing biofilms (not observed even at) [12]: > 3 µg/mL
